# Experimental data from article PMC5613053 (Investigational New Drugs, 2017).
# How the values were obtained:
# ALK = biological target: T1, ALK (Homo sapiens, UniProt Q9UM73); assay: Tyrosine kinase panel (off-chip MSA); assay type: biochemical; settings: 1 nM; single experiment
# T1 construct: purchased Carna Biosciences, Inc
# Experimental: (§1) Inhibitory assay for the panel of tyrosine kinases was conducted using off-chip MSA. Percentage inhibitions were determined in a single experiment
# MER = biological target: T2, MER (Homo sapiens, UniProt Q12866); assay: Tyrosine kinase panel (off-chip MSA); assay type: biochemical; settings: 5 nM; single experiment
# T2 construct: purchased Carna Biosciences, Inc
# Experimental: as §1
# RET = biological target: T3, RET (Homo sapiens, UniProt P07949); assay: Tyrosine kinase panel (off-chip MSA); assay type: biochemical; settings: 5 nM; single experiment
# T3 construct: purchased Carna Biosciences, Inc
# T3 sequence (P07949 29-1114): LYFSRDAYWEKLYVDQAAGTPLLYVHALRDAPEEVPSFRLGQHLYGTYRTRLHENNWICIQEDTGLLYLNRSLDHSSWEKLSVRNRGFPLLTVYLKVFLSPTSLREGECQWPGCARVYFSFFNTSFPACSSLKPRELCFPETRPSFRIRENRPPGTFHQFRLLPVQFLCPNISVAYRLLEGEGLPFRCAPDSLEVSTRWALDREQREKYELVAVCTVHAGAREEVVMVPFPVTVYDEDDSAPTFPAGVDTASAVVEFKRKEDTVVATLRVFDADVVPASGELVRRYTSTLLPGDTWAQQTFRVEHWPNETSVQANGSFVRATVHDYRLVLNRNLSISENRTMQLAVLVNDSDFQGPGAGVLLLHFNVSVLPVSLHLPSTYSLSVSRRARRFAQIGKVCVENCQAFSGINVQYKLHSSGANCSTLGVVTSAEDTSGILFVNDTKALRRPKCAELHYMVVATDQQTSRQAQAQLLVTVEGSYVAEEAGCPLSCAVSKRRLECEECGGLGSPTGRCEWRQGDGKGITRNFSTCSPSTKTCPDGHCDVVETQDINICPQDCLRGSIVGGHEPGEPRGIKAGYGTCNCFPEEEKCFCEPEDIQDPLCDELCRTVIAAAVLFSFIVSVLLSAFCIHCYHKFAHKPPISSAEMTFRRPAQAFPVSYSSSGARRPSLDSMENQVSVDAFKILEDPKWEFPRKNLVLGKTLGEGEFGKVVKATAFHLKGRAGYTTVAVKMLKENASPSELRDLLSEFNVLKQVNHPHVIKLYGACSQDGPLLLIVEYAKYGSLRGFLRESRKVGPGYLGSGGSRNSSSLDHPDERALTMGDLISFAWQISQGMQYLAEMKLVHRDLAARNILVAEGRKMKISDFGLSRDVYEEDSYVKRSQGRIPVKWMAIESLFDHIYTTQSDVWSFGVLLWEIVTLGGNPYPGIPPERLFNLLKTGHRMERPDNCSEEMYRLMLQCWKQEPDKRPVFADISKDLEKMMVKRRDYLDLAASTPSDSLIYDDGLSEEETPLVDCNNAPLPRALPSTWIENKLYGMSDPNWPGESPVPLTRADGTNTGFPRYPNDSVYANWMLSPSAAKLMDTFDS
# Experimental: as §1
# ROS = biological target: T4, ROS (Homo sapiens, UniProt P08922); assay: Tyrosine kinase panel (off-chip MSA); assay type: biochemical; settings: 5 nM; single experiment
# T4 construct: purchased Carna Biosciences, Inc
# T4 sequence (P08922 28-2347): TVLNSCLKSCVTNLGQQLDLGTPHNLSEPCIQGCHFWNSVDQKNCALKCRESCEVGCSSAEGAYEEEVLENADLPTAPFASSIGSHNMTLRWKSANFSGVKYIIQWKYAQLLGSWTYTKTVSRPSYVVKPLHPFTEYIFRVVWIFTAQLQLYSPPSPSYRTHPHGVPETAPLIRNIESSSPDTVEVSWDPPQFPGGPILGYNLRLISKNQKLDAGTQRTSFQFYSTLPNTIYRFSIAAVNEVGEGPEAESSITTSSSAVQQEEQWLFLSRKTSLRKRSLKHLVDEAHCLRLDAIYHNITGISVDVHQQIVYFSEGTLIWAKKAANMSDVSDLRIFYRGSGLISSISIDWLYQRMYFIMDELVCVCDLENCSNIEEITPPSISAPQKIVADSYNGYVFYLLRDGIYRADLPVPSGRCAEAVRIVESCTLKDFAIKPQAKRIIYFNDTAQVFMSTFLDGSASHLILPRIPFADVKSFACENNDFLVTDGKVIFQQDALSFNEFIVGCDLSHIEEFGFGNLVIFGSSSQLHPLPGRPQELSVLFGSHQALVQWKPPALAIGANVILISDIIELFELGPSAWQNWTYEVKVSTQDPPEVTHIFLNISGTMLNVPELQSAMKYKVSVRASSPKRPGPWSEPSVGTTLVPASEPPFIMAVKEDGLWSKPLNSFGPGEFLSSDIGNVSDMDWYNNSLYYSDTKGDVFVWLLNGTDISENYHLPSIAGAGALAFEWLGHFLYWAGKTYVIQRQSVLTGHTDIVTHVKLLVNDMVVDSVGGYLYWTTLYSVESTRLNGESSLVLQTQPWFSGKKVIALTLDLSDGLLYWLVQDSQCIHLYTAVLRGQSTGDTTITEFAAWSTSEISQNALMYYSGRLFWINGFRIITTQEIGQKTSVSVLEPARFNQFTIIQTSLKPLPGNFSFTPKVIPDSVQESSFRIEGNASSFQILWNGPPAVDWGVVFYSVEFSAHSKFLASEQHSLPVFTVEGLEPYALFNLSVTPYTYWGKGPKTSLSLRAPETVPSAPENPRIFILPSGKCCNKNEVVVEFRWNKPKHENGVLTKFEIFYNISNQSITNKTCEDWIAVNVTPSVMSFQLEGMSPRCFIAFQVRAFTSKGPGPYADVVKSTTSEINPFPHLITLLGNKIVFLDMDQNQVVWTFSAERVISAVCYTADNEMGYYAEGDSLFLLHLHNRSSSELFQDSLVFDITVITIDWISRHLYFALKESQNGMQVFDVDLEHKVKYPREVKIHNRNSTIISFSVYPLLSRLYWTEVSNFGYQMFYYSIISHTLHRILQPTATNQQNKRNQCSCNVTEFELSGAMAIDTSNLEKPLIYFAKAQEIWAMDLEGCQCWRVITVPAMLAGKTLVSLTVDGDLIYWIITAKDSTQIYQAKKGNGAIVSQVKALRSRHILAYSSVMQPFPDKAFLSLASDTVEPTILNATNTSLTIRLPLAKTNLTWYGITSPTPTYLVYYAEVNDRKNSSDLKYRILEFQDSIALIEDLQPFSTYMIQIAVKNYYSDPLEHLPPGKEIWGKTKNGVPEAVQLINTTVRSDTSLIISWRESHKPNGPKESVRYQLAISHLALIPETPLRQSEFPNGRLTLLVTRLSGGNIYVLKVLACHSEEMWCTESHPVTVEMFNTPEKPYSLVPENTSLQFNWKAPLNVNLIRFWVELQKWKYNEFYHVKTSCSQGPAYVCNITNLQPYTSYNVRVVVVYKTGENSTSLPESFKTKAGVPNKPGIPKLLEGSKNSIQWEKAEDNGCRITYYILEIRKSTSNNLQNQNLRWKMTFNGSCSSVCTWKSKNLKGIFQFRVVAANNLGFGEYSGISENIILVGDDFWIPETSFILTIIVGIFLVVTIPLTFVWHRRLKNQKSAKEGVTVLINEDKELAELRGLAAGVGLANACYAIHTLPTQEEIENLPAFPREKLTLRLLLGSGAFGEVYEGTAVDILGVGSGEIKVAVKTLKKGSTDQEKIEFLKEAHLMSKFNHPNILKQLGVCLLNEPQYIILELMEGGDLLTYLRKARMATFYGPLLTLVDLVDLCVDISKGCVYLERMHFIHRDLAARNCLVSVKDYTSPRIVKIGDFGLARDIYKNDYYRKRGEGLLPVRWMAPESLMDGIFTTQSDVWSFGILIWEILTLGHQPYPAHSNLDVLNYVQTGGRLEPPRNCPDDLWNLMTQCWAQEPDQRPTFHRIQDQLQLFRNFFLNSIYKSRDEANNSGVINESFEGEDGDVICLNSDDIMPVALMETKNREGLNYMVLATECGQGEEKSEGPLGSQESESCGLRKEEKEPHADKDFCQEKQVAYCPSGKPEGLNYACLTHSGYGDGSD
# Experimental: as §1
# TRKA = biological target: T5, TRKA (Homo sapiens, UniProt P04629); assay: Tyrosine kinase panel (off-chip MSA); assay type: biochemical; settings: 5 nM; single experiment
# T5 construct: purchased Carna Biosciences, Inc
# Experimental: as §1
# MV4–11 cells = assay: CellTiter-Glo cell viability; assay type: cell-based; settings: Homo sapiens, MV4-11, 120 h; 5 days of treatment; read-out: Growth inhibition mean IC50
# Experimental: (§2) A detailed protocol is provided in the online resource.
# The assay was performed in either triplicate or quadruplicate. […] The geometric mean was calculated from three individual experiments.
# [1] = system: Ba/F3 cells expressing FLT3-ITD-D835Y; assay: cells; settings: Mus musculus, BaF3, 48 h, read-out: Cell growth inhibition IC50
# Experimental: as §2
# (§3) To examine the effect of ASP2215 on cell viability, MV4-11, MOLM-13, and Ba/F3 cells expressing either FLT3-ITD, FLT3-D835Y, FLT3-ITD-D835Y, FLT3-ITD-F691L or FLT3-ITD-F691I were seeded into 96-well white plates (Nunc F96 MicroWell™ Plates, white; Thermo Fisher Scientific Inc., Waltham, MA) at 1000 cells/well in Iscove’s Modified Dulbecco’s Medium, 500 cells/well in RPMI 1640 or 1000 cells/well in RPMI 1640, respectively. All cell lines were cultured overnight in a humidified incubator at 37°C with 5% CO2 in media supplemented with 10% heat-inactivated FBS.
# (§4) After treatment, the CellTiter-Glo® Luminescent Cell Viability Assay (Promega) was used according to the manufacturer’s instructions and luminescence was measured using an ARVO-HTS plate reader (Perkin Elmer Inc., Waltham, MA). The assay was performed in either triplicate or quadruplicate. […] The geometric mean was calculated from three individual experiments.
# (§5) The mutants of FLT3 (NM_004119), FLT3-D835Y (gat to tat), FLT3-ITD (insertion of […] at 1799 position of CDS), FLT3-ITD-F691I (ttt to att), FLT3-ITD-F691L (ttt to ctt), FLT3-ITD-D835Y were encoded into pMX-puro vector (Cell Biolabs, Inc., San Diego, CA), and transfected with FuGENE-HD (Promega) into Platinum-E cells. […]
# [2] = system: Ba/F3 cells expressing FLT3-ITD; assay: cells; settings: Mus musculus, BaF3, 48 h, read-out: Cell growth inhibition IC50
# Experimental: as §2, §3, §4, §5
# p-AKT = assay: Immunoblot of downstream FLT3 targets in MV4-11 cells; assay type: cell-based; settings: Homo sapiens
# Experimental: (§6) FLT3 immunoprecipitation and immunoblotting for all targets were performed following standard protocols. Detailed methods are provided in the online resource.
# (§7) Cells were treated for 2 h prior to cell lysate preparation in RIPA buffer supplemented with phosphatase / protease inhibitors. Following sample preparation, protein lysates were electrophoresed on 7.5% gels and transferred to PVDF membranes.
# (§8) All membranes were blocked using either Blocking One or Blocking One-P (Nacalai Tesque Inc., Kyoto, Japan) for 1 h prior to an overnight incubation with primary antibody. Membranes were incubated overnight at 4°C with one of the following antibodies: anti-FLT3 antibody (Abcam), anti-phosphorylated pan-tyrosine, anti-ERK, anti-phospho-ERK, anti-STAT5, anti-phospho-STAT5, anti-AKT, anti-phospho-AKT, anti-AXL, anti-phospho-AXL, or anti-actin. The membranes were then washed with 1× TBS Tween-20 (TBS-T) Buffer (Thermo Fisher Scientific Inc., Rockford, IL) and incubated with an appropriate HRP-linked secondary antibody (Cell Signaling Technology) for 1 h at room temperature. After a final wash, ECL Western Blotting Detection Reagent ECL-prime (GE Healthcare, Fairfield, CT) were applied to the membranes and signals were detected with a CCD camera (ImageQuant LAS4000; GE Healthcare). Signal intensity was then quantified using ImageQuant™ TL software (GE Healthcare). The study was performed once in triplicate, and the mean percentage of phosphorylated protein to total protein relative to that in vehicle-treated cells was calculated.
# p-ERK = assay: as above; assay type: cell-based; settings: Homo sapiens
# Experimental: as §6, §7, §8
# p-STAT5 = assay: as above; assay type: cell-based; settings: Homo sapiens
# Experimental: as §6, §7, §8
# MV4–11-luc cells = assay: Intra-bone marrow transplantation (IBMT) model; assay type: in vivo, mice
# Experimental: In the intra-bone marrow transplantation (IBMT) model, MV4–11-luc cells (1 × 10^6 cells/mouse) were injected into the bone marrow of the left tibia of female NOD-SCID mice (day 0) following the protocol detailed by Lee et al.. Tumor growth was monitored by bioluminescent imaging of the whole body with an IVIS Spectrum (PerkinElmer, Waltham, MA). […] Tumor growth was monitored once a week during the dosing period and then every other week until day 100. Survival was also monitored daily until day 168.
# [3] = read-out: Kinase inhibition at the specified gilteritinib concentration (%), 0.1 nM, 2 h
# [4] = read-out: Kinase inhibition at the specified gilteritinib concentration (%), 1 nM, 2 h
# [5] = read-out: Kinase inhibition at the specified gilteritinib concentration (%), 10 nM, 2 h
# T1 sequence (Q9UM73 19-1620): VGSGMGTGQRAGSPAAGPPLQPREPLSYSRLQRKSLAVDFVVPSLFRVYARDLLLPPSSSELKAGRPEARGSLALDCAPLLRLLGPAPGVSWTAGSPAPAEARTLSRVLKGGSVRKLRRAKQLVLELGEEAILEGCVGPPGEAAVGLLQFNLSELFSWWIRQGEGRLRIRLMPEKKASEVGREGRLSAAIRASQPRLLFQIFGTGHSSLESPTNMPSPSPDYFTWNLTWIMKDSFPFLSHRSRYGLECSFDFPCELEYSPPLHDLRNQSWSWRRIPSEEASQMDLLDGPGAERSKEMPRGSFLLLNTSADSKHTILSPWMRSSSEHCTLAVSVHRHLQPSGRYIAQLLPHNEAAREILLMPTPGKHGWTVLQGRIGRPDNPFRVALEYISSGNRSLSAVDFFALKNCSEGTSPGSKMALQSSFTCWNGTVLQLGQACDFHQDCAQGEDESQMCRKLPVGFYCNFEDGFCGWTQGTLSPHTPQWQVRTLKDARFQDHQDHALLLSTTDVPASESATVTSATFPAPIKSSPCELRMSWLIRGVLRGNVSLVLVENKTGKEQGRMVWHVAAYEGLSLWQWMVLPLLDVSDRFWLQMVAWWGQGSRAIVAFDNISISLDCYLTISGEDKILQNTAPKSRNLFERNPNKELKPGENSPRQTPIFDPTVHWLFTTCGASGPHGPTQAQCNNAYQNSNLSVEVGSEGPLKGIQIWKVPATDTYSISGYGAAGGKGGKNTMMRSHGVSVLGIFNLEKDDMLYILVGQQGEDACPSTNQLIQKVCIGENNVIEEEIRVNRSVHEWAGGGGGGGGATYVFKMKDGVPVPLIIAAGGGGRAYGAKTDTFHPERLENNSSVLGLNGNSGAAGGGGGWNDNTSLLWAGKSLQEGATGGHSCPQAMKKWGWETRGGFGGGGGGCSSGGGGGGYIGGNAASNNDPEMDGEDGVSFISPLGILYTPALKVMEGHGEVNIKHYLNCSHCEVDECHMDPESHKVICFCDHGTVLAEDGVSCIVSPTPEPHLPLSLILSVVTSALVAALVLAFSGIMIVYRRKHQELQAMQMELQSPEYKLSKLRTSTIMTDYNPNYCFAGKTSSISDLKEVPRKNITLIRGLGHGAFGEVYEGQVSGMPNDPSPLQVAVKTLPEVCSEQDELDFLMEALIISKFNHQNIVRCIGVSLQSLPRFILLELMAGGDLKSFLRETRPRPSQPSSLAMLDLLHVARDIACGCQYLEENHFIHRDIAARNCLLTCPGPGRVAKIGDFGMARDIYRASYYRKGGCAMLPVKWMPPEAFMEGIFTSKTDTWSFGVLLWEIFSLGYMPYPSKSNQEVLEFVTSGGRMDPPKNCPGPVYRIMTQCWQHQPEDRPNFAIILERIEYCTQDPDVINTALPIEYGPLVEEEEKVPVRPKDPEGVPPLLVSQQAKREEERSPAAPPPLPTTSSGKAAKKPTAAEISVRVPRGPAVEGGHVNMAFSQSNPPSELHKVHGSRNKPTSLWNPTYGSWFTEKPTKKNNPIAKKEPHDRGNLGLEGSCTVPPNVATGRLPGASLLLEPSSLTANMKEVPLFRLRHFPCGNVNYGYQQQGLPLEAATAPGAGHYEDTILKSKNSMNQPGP
smiles,measurement,setting,value
CCc1nc(C(N)=O)c(Nc2ccc(N3CCC(N4CCN(C)CC4)CC3)c(OC)c2)nc1NC1CCOCC1 [gilteritinib],inhibition at 0.001 µM,ALK,> 50%
same,inhibition at 0.005 µM,MER,> 50%
same,inhibition at 0.005 µM,RET,> 50%
same,inhibition at 0.005 µM,ROS,> 50%
same,inhibition at 0.005 µM,TRKA,> 50%
same,IC50,MV4–11 cells,0.92 nM
same,IC50,[1],2.1 nM
same,IC50,[2],1.8 nM
same,activity at 0.0001 µM,p-AKT; [3],65%
same,activity at 0.001 µM,p-AKT; [4],48%
same,activity at 0.01 µM,p-AKT; [5],9%
same,activity at 0.0001 µM,p-ERK; [3],54%
same,activity at 0.001 µM,p-ERK; [4],22%
same,activity at 0.01 µM,p-ERK; [5],1%
same,activity at 0.0001 µM,p-STAT5; [3],114%
same,activity at 0.001 µM,p-STAT5; [4],23%
same,activity at 0.01 µM,p-STAT5; [5],0%
same,Survival,"MV4–11-luc cells; 30 mg/kg once daily day 15–70, monitored until day 168, n = 10",all treated mice survived to day 168
same,MV4–11 cell infiltration,"MV4–11-luc cells; 30 mg/kg once daily, whole-body imaging",no evidence of cell infiltration
